Among the data in PubChem BioAssay AID330 (DTP/NCI, 2004) are T/C values, retold here.

The test system of the assay is P388 leukemia ip, CD2F1 mice, survival T/C. As to the kind of experiment: NCI In Vivo Anticancer Drug Screen. Data for tumor model P388 Leukemia (intraperitoneal) in CD2F1 (CDF1) mice. Particulars: endpoint: median survival time, higher = longer survival. The method, boiled down:
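Mice carrying the transplanted tumor received test compound or vehicle. Survival was recorded in each group, and the value is the treated-group measurement divided by that of the vehicle-treated control group.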

Where [1] appears, read: dose: 50.0 mg/kg/injection, schedule: Q01DX009 (ip), vehicle: saline.
Setting [2] is: dose: 100.0 mg/kg/injection, schedule: Q01DX009 (ip), vehicle: saline.
Setting [3] is: dose: 200.0 mg/kg/injection, schedule: Q01DX009 (ip), vehicle: saline.
Setting [4] is: dose: 25.0 mg/kg/injection, schedule: Q01DX009 (ip), vehicle: saline.
[5] abbreviates: dose: 12.5 mg/kg/injection, schedule: Q01DX009 (ip), vehicle: saline with Tween-80.
Where [6] appears, read: dose: 25.0 mg/kg/injection, schedule: Q01DX009 (ip), vehicle: saline with Tween-80.
Where [7] appears, read: dose: 50.0 mg/kg/injection, schedule: Q01DX009 (ip), vehicle: saline with Tween-80.

SMILES strings stand for the structures. “And” between values parts separate entries of the source, which are not always exact repeats. Equal entries are not always repeated. Inconclusive results and toxic doses are left out.

In the case of `OC1CCc2ncccc2O1` (stereo unspecified), the T/C runs as follows: under setting [1], 102 % of control; under setting [2], 102 % of control; under setting [3], 102 % of control.
For `N#Cc1c(-c2ccccc2Cl)c(-c2ccccc2Cl)nn(CCO)c1=O`, the T/C reads like this: (dose: 25.0 mg/kg/injection, schedule: Q04DX002 (ip), vehicle: distilled water + Tween-80) 99 % of control; (dose: 50.0 mg/kg/injection, schedule: Q04DX002 (ip), vehicle: distilled water + Tween-80) 100 % of control; (dose: 100.0 mg/kg/injection, schedule: Q04DX002 (ip), vehicle: distilled water + Tween-80) 91 % of control; (dose: 200.0 mg/kg/injection, schedule: Q04DX002 (ip), vehicle: distilled water + Tween-80) 101 % of control.
`CN1c2ccccc2Sc2c1n[nH]c2-c1ccccc1`: the T/C (dose: 60.0 mg/kg/injection, schedule: Q01DX005 (ip), vehicle: Klucel (hydroxypropylcellulose) (HPC)) was 104 % of control; the T/C (dose: 120.0 mg/kg/injection, schedule: Q01DX005 (ip), vehicle: Klucel (hydroxypropylcellulose) (HPC)) is 111 % of control; the T/C (dose: 240.0 mg/kg/injection, schedule: Q01DX005 (ip), vehicle: Klucel (hydroxypropylcellulose) (HPC)) is 119 % of control.
As to `O=c1[nH]c(CN2CCCCC2)ccc1O`, the T/C reads like this: under setting [4], 105 % of control and 109 % of control; under setting [1], 99 % of control and 105 % of control; under setting [2], 106 % of control and 109 % of control; under setting [3], 117 % of control and 118 % of control.
On to `Cc1cc(Br)c2c(c1)C(C(F)(F)F)(C(F)(F)F)OC(C)(C)N2`, for which the T/C is 94 % of control (dose: 50.0 mg/kg/injection, schedule: Q01DX009 (ip), vehicle: Klucel (hydroxypropylcellulose) (HPC)); 100 % of control (dose: 100.0 mg/kg/injection, schedule: Q01DX009 (ip), vehicle: Klucel (hydroxypropylcellulose) (HPC)); 101 % of control (dose: 200.0 mg/kg/injection, schedule: Q01DX009 (ip), vehicle: Klucel (hydroxypropylcellulose) (HPC)).
For the molecule `CCOC(=O)C1=C(C)N(C)C(C)=C(C(=O)OCC)C1`, the T/C was 108 % of control (dose: 60.0 mg/kg/injection, schedule: Q01DX005 (ip), vehicle: saline with Tween-80); 100 % of control (dose: 120.0 mg/kg/injection, schedule: Q01DX005 (ip), vehicle: saline with Tween-80); 101 % of control (dose: 240.0 mg/kg/injection, schedule: Q01DX005 (ip), vehicle: saline with Tween-80).
As to `CCCCCCCOC(=O)c1ccc(O)cc1`, the T/C reads like this: under setting [5], 105 % of control; under setting [6], 100 % of control; under setting [7], 99 % of control and 96 % of control; (dose: 100.0 mg/kg/injection, schedule: Q01DX009 (ip), vehicle: saline with Tween-80) 95 % of control.
For the molecule `CC1(C)N=C(N)N=C(N)N1c1ccc(CCC(=O)Nc2ccc(S(=O)(=O)F)cc2)c(Cl)c1`, the T/C by setting is: (dose: 6.25 mg/kg/injection, schedule: Q01DX009 (ip), vehicle: saline) 157 % of control; under setting [5], 187 % of control; (dose: 12.5 mg/kg/injection, schedule: Q01DX009 (ip), vehicle: saline) 200 % of control; under setting [6], 170 % of control; under setting [4], 209 % of control; under setting [7], 91 % of control. Besides, the T/C runs as follows: under setting [1], 190 % of control; (dose: 100.0 mg/kg/injection, schedule: Q04DX003 (ip), vehicle: saline with Tween-80) 170 % of control; (dose: 132.0 mg/kg/injection, schedule: Q04DX003 (ip), vehicle: saline with Tween-80) 100 % of control; (dose: 200.0 mg/kg/injection, schedule: Q04DX003 (ip), vehicle: saline with Tween-80) 162 % of control and 190 % of control; (dose: 400.0 mg/kg/injection, schedule: Q04DX003 (ip), vehicle: saline with Tween-80) 95 % of control.
Take `CSC(=S)N/N=C(C)\C=N/Nc1ccccc1`: the T/C reads like this: (dose: 100.0 mg/kg/injection, schedule: Q04DX002 (ip), vehicle: saline) 101 % of control; (dose: 200.0 mg/kg/injection, schedule: Q04DX002 (ip), vehicle: saline) 106 % of control; (dose: 400.0 mg/kg/injection, schedule: Q04DX002 (ip), vehicle: saline) 96 % of control.
For `OCCC1CC2CCCCN2O1` (stereo unspecified), the T/C runs as follows: (dose: 50.0 mg/kg/injection, schedule: Q04DX003 (ip), vehicle: saline) 101 % of control; (dose: 100.0 mg/kg/injection, schedule: Q04DX003 (ip), vehicle: saline) 103 % of control; (dose: 200.0 mg/kg/injection, schedule: Q04DX003 (ip), vehicle: saline) 102 % of control.
